Laboratory results taken from US7063946B2, “Methods, reagents, kits and apparatus for protein function analysis” (Meso Scale Technologies, LLC., priority 2001, dated 2006).

Experiments:
[1] = tested on: pEY; experiment: In vitro kinase library screen: activity towards pEY; type: biochemical; settings: 5 ul of expressed protein
Experimental: Proteins were produced in an in vitro transcription and translation reaction. […] The unbound components of the reaction containing endogenous kinases were removed by three washes with TT-buffer (25 mM Tris-HCl buffer pH 7.4 and 0.004% Triton), two five minutes washings with high-salt wash buffer (25 mM Tris-HCl buffer pH 7.4, 0.004% Triton, 1M NaCl and 5 mM DTT) and 3 more washes with TT-buffer. To these immobilized and purified proteins a tyrosine kinase substrate, 5 nM pEY (poly Glu-Tyr, Sigma, MO), was added in a 50 μl reaction solution containing 5 mM MgCl2, 5 mM MnCl2, 100 μM ATP, 25 mM Tris-HCl buffer pH 7.4, 0.05 mM Na3VO4, 0.004% TritonX-100, 2 mM DTT and EDTA-free protease inhibitor (Roche Molecular Biochemicals). This mixture was incubated with shaking at room temperature overnight to allow phosphorylation of the pEY substrate by the immobilized kinases. Following this incubation, 45 μl of this mixture was transferred to a streptavidin or avidin-coated NPT IPR plate coated with biotinylated anti-phosphotyrosine antibody (PY20, Zymed labs, CA) followed by incubation for 30 minutes at room temperature to allow the binding of the phosphorylated pEY substrate to the PY20 coated NPT plate. Following this binding step, 50 ng Sulfo-TAG labeled anti-phosphotyrosine in buffer containing 25 mM Tris-HCl buffer pH 7.4, 5 mM MgCl2, 0.05 mM Na3VO4, 0.004% TritonX-100, 2 mM DTT and 0.05% IgG was added followed by incubation at room temperature for 30 mm. The unbound reagents were removed by one time washing with water, and the TAG label was detected in presence of 150 μl IPR assay buffer (0.4 mM Gly-Gly buffer, pH 7.8, 1 mM EDTA, 0.1 M TPA). The ECL signals were measured using an imaging plate reader.
(§1) Proteins were produced in an in vitro transcription and translation reaction as described in the Materials and Methods. […] The reaction was stopped by mixing with BB2 buffer. Biotinylated proteins from 50 μl of the mixture (representing 0.5 μl to 5 μl of TnT reaction) were immobilized onto streptavidin or avidin coated NPT-IPR plates by shaking at room temperature for 45 min. The activity of the immobilized protein towards pEY or autophosphorylation was further assayed by the methods described in examples 7 and 8.

[2] = tested on: autophosphorylation (phosphotyrosine); experiment: In vitro kinase library screen: autophosphorylation; type: biochemical
Experimental: Proteins were produced from DNA plasmids of Mock Luciferase, Promega, tyrosine kinase clone Spleen Tyrosine kinase (SYK, IMAGE ID# 3870426) and Eph receptor-A7 (EphA7, IMAGE ID# 3991628) (Incyte Genomics, CA) and immobilized on streptavidin or avidin coated NPT-IPR plates as described in the Example 7. To promote autophosphorylation in these immobilized and purified proteins, Mn++ ions were added in a 50 μl reaction containing 5 mM MgCl2, 5 mM MnCl2, 100 μM ATP, 25 mM Tris-HCl buffer pH 7.4, 0.05 mM Na3VO4, 0.004% TritonX-100, 2 mM DTT and EDTA-free protease inhibitor (Roche Molecular Biochemicals). This mixture was incubated with shaking at room temperature overnight to allow autophosphorylation. Following this incubation, wells were washed 2 times with TT-buffer and 2 times with water. Following this step, 50 ng Sulfo-TAG labeled anti-phosphotyrosine in buffer containing 25 mM Tris-HCl buffer pH 7.4, 5 mM MgCl2, 0.05 mM Na3VO4, 0.004% TritonX-100, 2 mM DTT and 0.05% IgG in a final volume of 50 μl was added followed by incubation at room temperature for 45 min. The unbound reagents were removed by one time washing with water, and the TAG label was detected in presence of 150 μl IPR assay buffer (0.4 mM Gly—Gly buffer, pH 7.8, 1 mM EDTA, 0.1 M TPA). The ECL signals were measured using an imaging plate reader.
as §1

[3] = tested on: pooled phosphopeptide:BSA conjugates (Pools A-D); experiment: Coded multiplex phosphopeptide binding assay with pooled peptide:BSA conjugates on 4 spots
Description: To prepare the Multi-Spot IPR plates, in this example we made use of pools of the peptide:BSA conjugates to coat each of 4 spots per well in a 96 well plate. To achieve this we made the following pools; • Pool A; EGFR-pTyr1148, IkBa-24ppC, Myc-p58Tp62S. • Pool B; EGFR-pTyr992, EGFR-pTyr1148, Smad3C. • Pool C; EGFR-pTyr1068, IkBa-24ppC, Smad3C. • Pool D; EGFR-pTyr992, EGFR-pTyr1068, Myc-p58Tp62S.
This combination of the various peptides results in any single peptide being present in two pools. Each of these four pools is then spotted on to a unique spot in a 4 spot array. In this way any single binding protein with specificity for only one of the peptides would bind to two spots; the identity of the two spots would allow the identification of the peptide involved in the binding reaction.
Typically approximately 120 fmole of peptide:BSA conjugate in 0.25 μl was deposited on each spot of a 4-spot multi-array IPR plates using a BioDot Dispenser (Bio-Dot Inc., vIrvine Calif.). At this stage, the plates were dried then used or stored under desiccated condition. A few hours prior to usage, the plates were rehydrated and blocked with 3% BSA, in PBS.
To test the system the following EST clones IMAGE # 3491843, 4237375, 4398016, 4419252, 3872466, 3907115 were obtained. These clones express the following genes βTRCP1, βTRCP2, Grb2, PLCγ, CBP and Shc1, respectively. […] These DNAs were used to produce proteins as described in the Materials and Methods. Proteins were transferred to a well of the 4 spot peptide-coated and BSA blocked ECL plates. The binding assay (using Sulfo-TAG labeled streptavidin as a detection agent) was carried our according to the procedures described in Example 11.

[4] = tested on: tyrosine kinases reported to be the target of each inhibitor; settings: read-out: reported IC50 concentration (1× concentration); for the kinase reported to be the target of the inhibitor; cited from earlier work

In the case of “3156953: IMAGE clone protein: Wee1, wee 1 homolog (S. pombe) [compound 3156953]”, the HTS signal [1] is reported as 981 and the ECL signal [2] is reported as 27,452.
In the case of “3601246: IMAGE clone protein: FRK, B-cell src-homology tyrosine kinase [compound 3601246]”, the HTS signal [1] is reported as 15,235 and the ECL signal [2] is reported as 28,243.
Work on “3866791: IMAGE clone protein: JAK1, Janus kinase 1 [compound 3866791]” yielded an HTS signal [1] of 729.
In the case of “3896359: IMAGE clone protein: FGFR1, fibroblast growth factor receptor 1 (fms-related TK2) [compound 3896359]”, the HTS signal [1] is reported as 2,339 and the ECL signal [2] is reported as 7,696.
With “3921724: IMAGE clone protein: FGR, FYN oncogene related to SRC [compound 3921724]” the HTS signal [1] was 93,081 and the ECL signal [2] was 241,697.
With “3982920: IMAGE clone protein: Clk4, CDC like kinase 4 [compound 3982920]” the HTS signal [1] was 2,244 and the ECL signal [2] was 192,787.
In the case of “3989782: IMAGE clone protein: Yes, Yamaguchi sarcoma viral (v-yes) oncogene homolog [compound 3989782]”, the HTS signal [1] is reported as 2,208 and the ECL signal [2] is reported as 4,542.
For “3995512: IMAGE clone protein: CLK2, CDC-like kinase 2 [compound 3995512]”, the HTS signal [1] was 634 and the ECL signal [2] was 20,748.
For “4036253: IMAGE clone protein: CLK3, CDC-like kinase 3 [compound 4036253]”, the HTS signal [1] was 704 and the ECL signal [2] was 42,712.
With “4037899: IMAGE clone protein: FGFR1, fibroblast growth factor receptor 1 [compound 4037899]” the HTS signal [1] was 450,413 and the ECL signal [2] was 240,550.
In the case of “4181574: IMAGE clone protein: NTRK3, neurotrophic tyrosine kinase [compound 4181574]”, the HTS signal [1] is reported as 36,515 and the ECL signal [2] is reported as 55,017.
With “4191610: IMAGE clone protein: LCK, lymphocyte protein tyrosine kinase [compound 4191610]” the HTS signal [1] was 3,110 and the ECL signal [2] was 24,183.
With “4343428: IMAGE clone protein: PTK2B, protein tyrosine kinase 2 beta [compound 4343428]” the HTS signal [1] was 57,486 and the ECL signal [2] was 274,742.
For “4363897: IMAGE clone protein: FGR, FYN oncogene related to SRC [compound 4363897]”, the HTS signal [1] was 402,243 and the ECL signal [2] was 44,220.
With “4387232: IMAGE clone protein: CLK1, CDC-like kinase 1 [compound 4387232]” the HTS signal [1] was 5,109 and the ECL signal [2] was 423,938.
For “4398016: IMAGE clone protein: Grb2 [compound 4398016]”, the “Code (pattern of positive spots)” value [3] was “C, D”, the “Peptide determined from code” value [3] was “EGFR-pTyr1068” and the “ECL signal, spot A” value ([3]; Pool A, EGFR-pTyr1148, IkBa-24ppC, Myc-p58Tp62S) was 36. The “ECL signal, spot B” value ([3]; Pool B, EGFR-pTyr992, EGFR-pTyr1148, Smad3C) was 38, the “ECL signal, spot C” value ([3]; Pool C, EGFR-pTyr1068, IkBa-24ppC, Smad3C) was 509 and the “ECL signal, spot D” value ([3]; Pool D, EGFR-pTyr992, EGFR-pTyr1068, Myc-p58Tp62S) was 386.
In the case of “4419031: IMAGE clone protein: BLK, B lymphoid tyrosine kinase [compound 4419031]”, the HTS signal [1] is reported as 37,907 and the ECL signal [2] is reported as 146,775.
With “4419700: IMAGE clone protein: LCK, lymphocyte-specific protein tyrosine kinase [compound 4419700]” the HTS signal [1] was 898 and the ECL signal [2] was 7,230.
In the case of “4419973: IMAGE clone protein: FGR, Gardner-Rasheed feline sarcoma viral (v-fgr) oncogene homolog [compound 4419973]”, the HTS signal [1] is reported as 104,946 and the ECL signal [2] is reported as 117,395.
In the case of “4471986: IMAGE clone protein: ALK, anaplastic lymphoma kinase (Ki-1) [compound 4471986]”, the HTS signal [1] is reported as 905 and the ECL signal [2] is reported as 4,069.
For “4515877: IMAGE clone protein: Frk, fyn-related kinase [compound 4515877]”, the HTS signal [1] was 271,855 and the ECL signal [2] was 148,139.
In the case of `COc1cc2ncnc(Nc3cccc(Cl)c3)c2cc1OC` [AG-1478], the IC50 [4] is listed as 3 nM.
In the case of `CCOc1cc2ncnc(Nc3cccc(Br)c3)c2cc1OCC` [Compound-56], the IC50 [4] is listed as 0.006 nM.
In the case of `CC(C)c1cc(/C=C(\C#N)C(=O)NCCCc2ccccc2)cc(C(C)C)c1O` [SU-1498], the IC50 [4] is listed as 700 nM.
